# Data reported in paper PMC4794757 (Bioorganic & medicinal chemistry letters, 2016).
# Columns and labels:
# hmGlu1 = hmGlu1 (Homo sapiens, UniProt Q13255); assay: Calcium mobilization mGlu1 assay; assay type: cell-based; conditions: for mGlu1 pEC50 (±SEM) / hmGlu1 EC50: calcium mobilization; for mGlu1 pEC50 (±SEM): n=3; for hmGlu1 EC50: average of n=3 in triplicate
# hmGlu4 = hmGlu4 (Homo sapiens, UniProt Q14833); assay: mGlu4 counter-screen; assay type: cell-based; conditions: selectivity mGlu1 versus mGlu4
# Rat iv PK = assay type: in vivo; conditions: rat iv clearance versus rat microsomal prediction
# Sequence of hmGlu1 (Q13255 19-1194): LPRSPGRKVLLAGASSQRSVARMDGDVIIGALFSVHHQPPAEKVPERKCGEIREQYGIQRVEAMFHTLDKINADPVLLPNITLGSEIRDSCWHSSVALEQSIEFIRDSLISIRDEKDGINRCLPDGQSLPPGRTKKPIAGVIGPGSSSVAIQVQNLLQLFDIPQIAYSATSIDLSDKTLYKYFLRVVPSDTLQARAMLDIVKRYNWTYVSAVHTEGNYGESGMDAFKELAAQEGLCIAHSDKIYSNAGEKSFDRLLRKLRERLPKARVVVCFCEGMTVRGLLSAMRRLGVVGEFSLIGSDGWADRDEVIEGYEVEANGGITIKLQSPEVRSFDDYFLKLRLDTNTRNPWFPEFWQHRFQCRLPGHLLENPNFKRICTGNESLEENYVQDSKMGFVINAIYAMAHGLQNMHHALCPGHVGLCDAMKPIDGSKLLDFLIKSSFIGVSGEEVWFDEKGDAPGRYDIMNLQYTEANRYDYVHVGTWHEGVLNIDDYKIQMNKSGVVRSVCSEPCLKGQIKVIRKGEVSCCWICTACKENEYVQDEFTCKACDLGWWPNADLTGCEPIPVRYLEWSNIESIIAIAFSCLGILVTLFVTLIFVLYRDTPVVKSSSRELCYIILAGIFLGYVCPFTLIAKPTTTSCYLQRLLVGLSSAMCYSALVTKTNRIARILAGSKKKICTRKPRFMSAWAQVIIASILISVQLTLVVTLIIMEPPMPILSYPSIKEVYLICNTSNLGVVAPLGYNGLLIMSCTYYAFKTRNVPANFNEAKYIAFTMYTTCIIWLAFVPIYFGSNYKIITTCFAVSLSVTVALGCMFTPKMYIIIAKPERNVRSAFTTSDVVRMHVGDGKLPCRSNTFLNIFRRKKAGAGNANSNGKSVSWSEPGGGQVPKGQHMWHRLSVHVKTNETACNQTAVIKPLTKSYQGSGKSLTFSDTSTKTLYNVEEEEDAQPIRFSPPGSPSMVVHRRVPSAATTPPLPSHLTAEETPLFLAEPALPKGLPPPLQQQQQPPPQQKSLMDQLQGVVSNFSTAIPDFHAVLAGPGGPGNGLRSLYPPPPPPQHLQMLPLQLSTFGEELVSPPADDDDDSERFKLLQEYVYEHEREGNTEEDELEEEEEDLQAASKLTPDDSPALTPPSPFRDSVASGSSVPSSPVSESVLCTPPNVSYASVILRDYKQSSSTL
# Sequence of hmGlu4 (Q14833 33-912): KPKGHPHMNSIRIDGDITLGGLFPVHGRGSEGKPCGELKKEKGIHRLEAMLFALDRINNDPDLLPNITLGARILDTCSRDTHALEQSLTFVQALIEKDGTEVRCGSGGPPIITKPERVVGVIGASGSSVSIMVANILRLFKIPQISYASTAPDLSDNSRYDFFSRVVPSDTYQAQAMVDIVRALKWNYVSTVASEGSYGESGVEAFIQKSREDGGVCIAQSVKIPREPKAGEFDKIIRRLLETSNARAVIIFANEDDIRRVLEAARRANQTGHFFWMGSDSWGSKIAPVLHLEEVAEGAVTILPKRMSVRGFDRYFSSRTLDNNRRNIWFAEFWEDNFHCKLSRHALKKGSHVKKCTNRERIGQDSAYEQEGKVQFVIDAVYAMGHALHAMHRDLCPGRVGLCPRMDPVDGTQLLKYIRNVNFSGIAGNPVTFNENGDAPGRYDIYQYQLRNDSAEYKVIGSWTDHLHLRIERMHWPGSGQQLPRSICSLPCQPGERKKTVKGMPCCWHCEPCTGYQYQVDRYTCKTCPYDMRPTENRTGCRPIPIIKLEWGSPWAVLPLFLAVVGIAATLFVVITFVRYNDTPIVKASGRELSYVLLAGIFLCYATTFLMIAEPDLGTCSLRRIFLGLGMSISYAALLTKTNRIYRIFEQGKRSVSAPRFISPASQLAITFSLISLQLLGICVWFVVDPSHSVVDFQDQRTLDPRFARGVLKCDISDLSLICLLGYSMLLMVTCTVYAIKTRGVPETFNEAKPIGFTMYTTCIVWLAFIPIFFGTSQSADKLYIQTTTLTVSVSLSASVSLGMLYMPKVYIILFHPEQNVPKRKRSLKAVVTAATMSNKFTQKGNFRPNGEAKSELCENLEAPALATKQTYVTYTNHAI
Structure (SMILES),mGlu1 pEC50 (±SEM) (hmGlu1),other results
Cc1[nH]ccc1C(=O)Nc1ccc(N2C(=O)c3ccccc3C2=O)c(Cl)c1 [10b],>5,
Cc1ccsc1C(=O)Nc1ccc(N2C(=O)c3ccccc3C2=O)c(Cl)c1 [10d],5.72±0.27,EC50 (hmGlu1): 1500 to 1800 nM
Cc1ncoc1C(=O)Nc1ccc(N2C(=O)c3ccccc3C2=O)c(Cl)c1 [10f],>5,
Cc1ocnc1C(=O)Nc1ccc(N2C(=O)c3ccccc3C2=O)c(Cl)c1 [10g],5.83±0.02,
Cc1ncsc1C(=O)Nc1ccc(N2C(=O)c3ccccc3C2=O)c(Cl)c1 [10h],>5,
Cc1scnc1C(=O)Nc1ccc(N2C(=O)c3ccccc3C2=O)c(Cl)c1 [10i],,potency increase relative to the unsubstituted thiazole (hmGlu1; effect of a single methyl group): ~200 fold
Cc1cn[nH]c1C(=O)Nc1ccc(N2C(=O)c3ccccc3C2=O)c(Cl)c1 [10k],5.91±0.21,
CN1CCC[C@@H]1C(=O)Nc1ccc(N2C(=O)c3ccccc3C2=O)c(Cl)c1 [10l],>5,hmGlu1 EC50 (hmGlu1): inactive
CN1CCC[C@H]1C(=O)Nc1ccc(N2C(=O)c3ccccc3C2=O)c(Cl)c1 [10m],>5,hmGlu1 EC50 (hmGlu1): inactive
Cc1ccc2c(c1)C(=O)N(c1ccc(NC(=O)c3ncoc3C)cc1Cl)C2=O [11a],7.38±0.11,
Cc1cn[nH]c1C(=O)Nc1ccc(N2C(=O)c3cccc(F)c3C2=O)c(Cl)c1 [11aa],,Fold versus mGlu4 (hmGlu4): >16 fold
Cc1ocnc1C(=O)Nc1ccc(N2C(=O)c3ccc(Cl)cc3C2=O)c(Cl)c1 [11c],7.26±0.13,
Cc1cccc2c1C(=O)N(c1ccc(NC(=O)c3ncsc3C)cc1Cl)C2=O [11i],6.64±0.14,
Cc1scnc1C(=O)Nc1ccc(N2C(=O)c3ccc(Cl)cc3C2=O)c(Cl)c1 [11j],7.30±0.15,
Cc1scnc1C(=O)Nc1ccc(N2C(=O)c3cccc(Cl)c3C2=O)c(Cl)c1 [11k],5.86±0.28,Fold versus mGlu4 (hmGlu4): >7.3 fold
Cc1scnc1C(=O)Nc1ccc(N2C(=O)c3cccnc3C2=O)c(Cl)c1 [11n],,Fold versus mGlu4 (hmGlu4): >52 fold
Cc1ccc2c(c1)C(=O)N(c1ccc(NC(=O)c3nccn3C)cc1Cl)C2=O [11o],6.60±0.20,
Cc1cccc2c1C(=O)N(c1ccc(NC(=O)c3nccn3C)cc1Cl)C2=O [11p],>5,
Cn1ccnc1C(=O)Nc1ccc(N2C(=O)c3ccc(Cl)cc3C2=O)c(Cl)c1 [11q],6.58±0.13,
Cn1ccnc1C(=O)Nc1ccc(N2C(=O)c3cccc(Cl)c3C2=O)c(Cl)c1 [11r],>5,
Cn1ccnc1C(=O)Nc1ccc(N2C(=O)c3cccc(F)c3C2=O)c(Cl)c1 [11t],>5,
Cn1ccnc1C(=O)Nc1ccc(N2C(=O)c3cccnc3C2=O)c(Cl)c1 [11u],>5,
Cc1ccc2c(c1)C(=O)N(c1ccc(NC(=O)c3[nH]ncc3C)cc1Cl)C2=O [11v],6.25±0.16,
Cc1cn[nH]c1C(=O)Nc1ccc(N2C(=O)c3cccc(C)c3C2=O)c(Cl)c1 [11w],5.36±0.22,Fold versus mGlu4 (hmGlu4): >2 fold
Cc1cn[nH]c1C(=O)Nc1ccc(N2C(=O)c3cccc(Cl)c3C2=O)c(Cl)c1 [11y],>5,
Cc1ccc2c(c1)C(=O)N(c1ccc(NC(=O)c3occc3C)c(F)c1)C2=O [13a],,in vivo clearance lower than the in vitro predicted value (Rat iv PK): 8 times
Cc1ccoc1C(=O)Nc1ccc(N2C(=O)c3cccc(C)c3C2=O)cc1F [13b],,in vivo clearance lower than the in vitro predicted value (Rat iv PK): 4 times
Cc1ccoc1C(=O)Nc1ccc(N2C(=O)c3ccc(Cl)cc3C2=O)cc1F [13c],8.27±0.02,
Cc1ccoc1C(=O)Nc1ccc(N2C(=O)c3ccc(F)cc3C2=O)cc1F [13d],7.71±0.06,
Cc1ccoc1C(=O)Nc1ccc(N2C(=O)c3cccc(F)c3C2=O)cc1F [13e],7.65±0.07,
